The source of these data is paper PMC10918830, “Biosynthesis of Cytidine Diphosphate-6-D-Glucitol for the Capsular Polysaccharides of Campylobacter jejuni” (Biochemistry, 2024).

The target in data set [1] is T1, NAD(P)-dependent oxidoreductase HS5.17 (CDP-6-D-glucitol synthase) (Campylobacter jejuni, UniProt A0A0U3AP28).
T1 construct: full-length, N-terminal His6 tag (pET-28a), E. coli expression; tag removed by TEV for the 8V4G crystals, tag kept for 8V4H; dimer
The experiment in a line: X-ray crystal structure, […] Å. Type of data set: binding. Particulars: tagged enzyme; crystallized with NADP(H), which was not observed; pH 8.0.

Data set [2] deals with T1, NAD(P)-dependent oxidoreductase HS5.17 (CDP-6-D-glucitol synthase). The experiment in a line: X-ray crystal structure, […] Å. Type of data set: binding. Particulars: tag-free enzyme; ternary complex with NADP(H); pH 9.0.
Data set [3] concerns the molecule itself. As to the kind of experiment: crystal structure; tag-free enzyme crystallized with 5 mM CDP and 5 mM NADP(H), PEG 8000, hexyleneglycol, 100 mM CHES pH 9.0; 2.0 Å; dimer in the asymmetric unit.
Data set [4] deals with the molecule itself. As to the kind of experiment: crystal structure; tagged enzyme crystallized with 5 mM CDP-6-D-glucitol and 5 mM NADP(H), PEG 8000, 200 mM LiCl, 100 mM HEPPS pH 8.0; 2.2 Å; dimer in the asymmetric unit.

As to `Nc1ccn([C@@H]2O[C@H](COP(=O)(O)OP(=O)(O)OC[C@@H](O)[C@@H](O)[C@H](O)[C@@H](O)CO)[C@@H](O)[C@H]2O)c(=O)n1` [compound 3, CDP-6-D-glucitol], in data set [1], the “X-ray crystal structure, 2.2 Å” value is listed as “The electron density was unambiguous for the CDP-6-D-glucitol ligands in both subunits”.
Regarding `Nc1ccn([C@@H]2O[C@H](COP(=O)(O)OP(=O)(O)O)[C@@H](O)[C@H]2O)c(=O)n1` [CDP], the “X-ray crystal structure, 2.0 Å” value in data set [2] was “The first structure determined of the oxidoreductase was that in complex with NADP(H) and CDP”.

B1: NAD(P)-dependent oxidoreductase (HS5.17) from C. jejuni serotype HS:5, tag-free (enzyme, Campylobacter jejuni serotype HS:5)
chain: MNEILKKRLKLLKNNFGTHINKIANKKILITGANGYIGSILTLILHGNAKLYCLVRNKDKMIDRFQEICGDIDKIDIYEDLYKIQDKIDIVIHCAAPTQSDFFIENPIDTVDIIYTNTKNILDFSKKNNVEKIIFLSTMEIYGDVIGDNIVEDDIGKFSVTNIRNSYPLAKQISEFMVHSYSKKYSLSTAIVRLTQAIGPTAQINDNRVYMDFIRSAIKKSQITLFTKGETKREYIDVFDVATAIIFVMCEKKMFEIYNISNPNIFISIYDLAKTISAKLNVQVVFDLQRDTSQYLPSFSRRLNSKKIYQLGWTPLFDLNQSLDDMIKYIKEVNE
notes: putative NAD(P)-oxidoreductase HS5.17 of Campylobacter jejuni serotype HS:5 (ATCC 43433), UniProt A0A0U3AP28; gene synthesized and codon-optimized, in pET-28a(+) between NdeI and XhoI; electron density seen from Met 1 to Asn 334; His 0 left over from the purification tag; Crystallized with CDP and NADP(H) (PDB 8V4G); also called CDP-6-D-glucitol synthase; nucleotide sugar reductase; source: E. …
On to B1, for which the “stoichiometry N” value in data set [3] was 2.

B2: NAD(P)-dependent oxidoreductase (HS5.17) from C. jejuni serotype HS:5, N-terminally histidine-tagged (enzyme, Campylobacter jejuni serotype HS:5)
chain: MNEILKKRLKLLKNNFGTHINKIANKKILITGANGYIGSILTLILHGNAKLYCLVRNKDKMIDRFQEICGDIDKIDIYEDLYKIQDKIDIVIHCAAPTQSDFFIENPIDTVDIIYTNTKNILDFSKKNNVEKIIFLSTMEIYGDVIGDNIVEDDIGKFSVTNIRNSYPLAKQISEFMVHSYSKKYSLSTAIVRLTQAIGPTAQINDNRVYMDFIRSAIKKSQITLFTKGETKREYIDVFDVATAIIFVMCEKKMFEIYNISNPNIFISIYDLAKTISAKLNVQVVFDLQRDTSQYLPSFSRRLNSKKIYQLGWTPLFDLNQSLDDMIKYIKEVNE
notes: putative NAD(P)-oxidoreductase HS5.17 of Campylobacter jejuni serotype HS:5 (ATCC 43433), UniProt A0A0U3AP28; gene synthesized and codon-optimized, in pET-28a(+) between NdeI and XhoI; electron density continuous from Met 1 to Asn 334, tag seen from Glu (-7) to Met 1 in Subunit B; Crystallized with CDP-6-D-glucitol (PDB 8V4H); also called CDP-6-D-glucitol synthase; nucleotide sugar reductase; …
Regarding B2, in data set [4], the “stoichiometry N” value was 2.
